Experimental data reported in the supplement of paper PMC10307832.

Tests used:
Experiment in all cases: relative viability (nuclei count vs DMSO), 5 days (fraction); higher = more cells survive
[1] = compound: COC1=CC(c2cc3ccccc3[nH]2)=N/C1=C\c1[nH]c(C)cc1C [Obatoclax] + CCNC(=O)c1noc(-c2cc(C(C)C)c(O)cc2O)c1-c1ccc(CN2CCOCC2)cc1 [Luminespib] (partner 0.01 µM)
Outline: (§1)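 Each reported value is a median over duplicate plates. It expresses relative viability: treated-well nuclei count divided by vehicle-well nuclei count. Lung cancer cell lines in 1536-well plates were dosed by pin tool a day after seeding, alone with one drug or with a fixed anchor-drug dose plus five library-drug doses (not always all listed) in √10 steps, and nuclei were counted after 5 days.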

[2] = compound: CC1=CC(=NN1)NC2=CC(=NC(=N2)/C=C/C3=CC=CC=C3)N4CCN(CC4)C + CCNC(=O)c1noc(-c2cc(C(C)C)c(O)cc2O)c1-c1ccc(CN2CCOCC2)cc1 [Luminespib] (partner 0.01 µM)
Outline: as §1

[3] = compound: CC(C)C[C@H](NC(=O)[C@H](Cc1ccccc1)NC(=O)c1cnccn1)B(O)O [Bortezomib] + CS(=O)(=O)N1CCN(Cc2cc3nc(-c4cccc5[nH]ncc45)nc(N4CCOCC4)c3s2)CC1 [Pictilisib] (partner 1 µM)
Outline: as §1

[4] = compound: CC(C)C[C@H](NC(=O)[C@H](Cc1ccccc1)NC(=O)c1cnccn1)B(O)O [Bortezomib] + Nc1nc2[nH]cc(CCc3ccc(C(=O)N[C@@H](CCC(=O)O)C(=O)O)cc3)c2c(=O)[nH]1 [Pemetrexed] (partner 0.2 µM)
Outline: as §1

Cell Line	relative viability ([1]; first compound 0.01 µM)	relative viability ([1]; first compound 0.03162 µM)	relative viability ([1]; first compound 0.1 µM)	relative viability ([1]; first compound 0.3162 µM)	relative viability ([1]; first compound 1 µM)	relative viability ([2]; first compound 0.08 µM)	relative viability ([2]; first compound 0.253 µM)	relative viability ([2]; first compound 0.8 µM)	relative viability ([2]; first compound 2.53 µM)	relative viability ([2]; first compound 8 µM)	relative viability ([3]; first compound 0.0002 µM)	relative viability ([3]; first compound 0.000632 µM)	relative viability ([3]; first compound 0.002 µM)	relative viability ([3]; first compound 0.006325 µM)	relative viability ([3]; first compound 0.02 µM)	relative viability ([4]; first compound 0.0002 µM)	relative viability ([4]; first compound 0.000632 µM)	relative viability ([4]; first compound 0.002 µM)	relative viability ([4]; first compound 0.006325 µM)	relative viability ([4]; first compound 0.02 µM)
NCI-H1755	0.416	0.418	0.388	0.714	0.713	0.496	0.416	0.748	0.346	0.157	0.441	0.322	0.43	0.171	0.137	0.404	0.495	0.472	0.286	0.239
NCI-H1792	0.419	0.474	–	0.376	0.394	0.407	0.375	0.412	0.319	0.122	0.29	0.21	0.192	0.306	0.175	0.656	0.837	0.827	0.4	0.057
NCI-H1793	0.119	0.128	0.187	0.183	0.192	0.16	0.184	0.151	0.136	0.116	0.282	0.305	0.297	0.269	0.18	0.762	–	0.867	0.616	0.211
NCI-H1915	0.725	0.664	0.749	0.713	0.796	0.772	0.868	0.745	0.471	0.12	0.808	0.941	1.14	0.685	0.144	0.496	0.475	0.494	0.396	0.0489
NCI-H1944	0.794	0.66	0.735	0.75	0.636	0.63	1.06	0.815	0.553	0.164	0.34	0.314	0.349	0.319	0.276	0.564	0.546	0.636	0.47	0.151
NCI-H1975	0.316	0.196	–	0.472	0.306	0.178	0.28	0.199	0.151	0.118	0.271	0.22	0.173	0.105	0.115	0.274	0.253	0.158	0.136	0.122
NCI-H1993	0.868	0.869	0.845	0.615	0.863	0.882	0.944	0.843	0.779	0.391	0.915	0.654	0.804	0.528	0.625	0.701	0.585	0.627	0.395	0.391
NCI-H2009	0.928	0.981	0.993	0.713	0.246	0.989	1.04	0.987	1.05	0.2	0.602	0.675	0.797	0.0767	0.06	1.05	1.05	1.02	0.553	0.0697
NCI-H2023	0.57	0.799	0.556	0.257	0.107	0.741	1.12	0.524	0.0645	0.0624	0.235	0.215	0.286	0.162	0.0837	0.25	0.247	0.246	0.0916	0.0786
NCI-H2085	0.389	0.432	0.44	0.283	0.347	0.358	0.417	0.438	0.318	0.184	0.404	0.465	0.447	0.39	0.218	0.827	0.873	0.991	0.403	0.206
NCI-H2087	0.164	0.166	0.161	0.121	0.121	0.209	0.212	0.158	0.119	0.136	0.77	0.74	0.7	0.159	0.0891	0.626	0.761	0.63	0.0855	0.0402
NCI-H2126	0.857	0.876	0.875	0.806	0.679	0.934	1.01	0.882	0.812	0.224	0.462	0.497	0.535	0.465	0.483	0.648	0.695	0.707	0.61	0.536
NCI-H2170	0.624	0.592	0.761	0.588	0.652	0.705	0.692	0.688	0.444	0.14	0.29	0.238	0.329	0.294	0.202	0.271	0.256	0.286	0.263	0.136
NCI-H2228	0.164	0.109	0.138	0.113	0.186	0.178	0.143	0.139	0.128	0.054	0.373	0.418	0.355	0.109	0.115	0.369	0.356	0.275	0.112	0.0808
NCI-H2347	0.595	0.374	–	0.269	0.23	0.524	0.371	0.501	0.389	0.22	0.803	0.587	0.564	0.318	0.0071	0.418	0.43	0.413	0.417	0.357
NCI-H2405	0.606	0.67	–	0.782	0.735	0.845	0.827	0.655	0.526	0.186	0.462	–	0.464	0.152	0.148	1.02	0.792	1.11	0.121	0.14
